Laboratory results reported in ChEMBL document CHEMBL1146970, “Potent blockers of the monocarboxylate transporter MCT1: novel immunomodulatory compounds” (Bioorg Med Chem Lett, 2006).
Values after ≈ are worked out from the molar mass of the structure shown.

How the values were obtained:
physchem [1] = conditions: octanol/water
[2] = buffer
physchem [3] = conditions: aqueous

| logD (physchem [1]) | solubility [2] | solubility (physchem [3]) | SMILES |
| --- | --- | --- | --- |
| 2.7 |  |  | CC(C)Cn1c(=O)n(C)c(=O)c2c(C(=O)N3CC[C@@H](O)C3)c(Cc3ccccc3C(F)(F)F)sc21 |
| 1.7 |  |  | CC(C)Cn1c(=O)n(C)c(=O)c2c(C(=O)N3CC[C@@H](O)C3)c(Cc3c[nH]c4ncccc34)sc21 |
| 1.6 |  |  | Cc1nc(Cl)c(Cl)n1Cc1sc2c(c1C(=O)N1CC[C@@H](O)C1)c(=O)n(C)c(=O)n2CC(C)C |
| 4.4 | 80 µg/mL (≈ 177 µM) |  | CC(C)Cn1c(=O)n(C)c(=O)c2c(SCCCO)n(Cc3cccc4ccccc34)cc21 |
| > 4.5 |  |  | CC(C)Cn1c(=O)n(C)c(=O)c2c(SCC(O)CO)c(Cc3ccccc3C(F)(F)F)sc21 (racemic) |
| 1.7 |  |  | CC(C)Cn1c(=O)n(C)c(=O)c2c(C(=O)N3CC[C@@H](O)C3)c(Cc3cncc4ccccc34)sc21 |
| 4.4 |  |  | CC(C)Cn1c(=O)n(C)c(=O)c2c(S[C@@H]3CC[C@H](O)C3)c(Cc3ccccc3C(F)(F)F)sc21 (racemic) |
| > 3.5 |  |  | CC(C)Cn1c(=O)n(C)c(=O)c2c(SC3CCC3)c(Cc3ccccc3C(F)(F)F)sc21 |
| 3.8 |  |  | CC(C)Cn1c(=O)n(C)c(=O)c2c(C(=O)N3CCCC3)c(Cc3ccccc3C(F)(F)F)sc21 |
| 3.2 |  |  | CC(C)Cn1c(=O)n(C)c(=O)c2c(C(=O)N3CC(C)(O)C3)c(Cc3ccccc3C(F)(F)F)sc21 |
| 4.2 |  |  | CC(C)Cn1c(=O)n(C)c(=O)c2c(S[C@@H]3CCC[C@H]3O)c(Cc3ccccc3C(F)(F)F)sc21 (racemic) |
| 1.6 |  |  | CNc1nc2ccccc2n1Cc1sc2c(c1C(=O)N1CC[C@@H](O)C1)c(=O)n(C)c(=O)n2CC(C)C |
| 3.3 |  |  | CC(C)Cn1c(=O)n(C)c(=O)c2c(S(=O)(=O)N3CC[C@@H](O)C3)c(Cc3ccccc3C(F)(F)F)sc21 (racemic) |
| 2 |  |  | CC(C)Cn1c(=O)n(C)c(=O)c2c(C(=O)N3CC[C@@H](O)C3)c(Cc3cccc4ncccc34)sc21 |
| 4.1 |  |  | CC(C)Cn1c(=O)n(C)c(=O)c2c(SCCCO)c(Cc3ccccc3C(F)(F)F)sc21 |
| 1.7 |  | 520 µg/mL (≈ 1060 µM) | CC(C)Cn1c(=O)n(C)c(=O)c2c(C(=O)N3CC[C@@H](O)C3)c(Cc3ccnc4ccccc34)sc21 |
| 4.8 |  | < 1 µg/mL | CC(C)Cc1nn(C)c(=O)c2c(SCCCO)n(Cc3cccc4ccccc34)cc12 |
| 2.4 |  |  | CC(C)Cn1c(=O)n(C)c(=O)c2c(C(=O)N3CC[C@@H](O)C3)c(Cc3c[nH]c4ccccc34)sc21 |
